Laboratory results: US20200281965A1, “[…] NITRIC OXIDE” (Beyond Air, Inc., priority 2017, published 2020)

What was measured:
[1] = test system: human influenza (influenza A/victoria H3N2) and highly pathogenic avian influenza (H7N2); assay type: cell-based, influenza virus
[2] = test system: human respiratory syncytial virus (rgRSV30); assay type: cell-based
[3] = safety monitoring of human subjects undergoing intermittent gNO inhalation; assay type: in vivo
Description: In some embodiments, the methods disclosed herein are effected while monitoring various parameters relevant for maintaining the desired dosage and regimen, relevant to the safety of the procedure and relevant for efficacy of the treatment. Exemplary such parameters are those obtainable on-site in real-time, such as methemoglobin level, end-tidal CO2 level, and oxygenation, and parameters which are obtainable off-site in the laboratory, such as blood nitrite level, urine nitrite level, and inflammatory markers' level. […] Embodiments of the present invention therefore relate to methods of administering gaseous nitric oxide to human subjects in need thereof, while these parameters remain substantially unchanged.
As methemoglobin levels can be measured using noninvasive measures, the parameter of percent saturation at the periphery of methemoglobin (SpMet) is used to monitor the stability, safety and effectiveness of the method presented herein.

[4] = human subjects undergoing the disclosed regimen

With `[N]=O` [gNO, nitric oxide] the infectivity of influenza [1] was “reduced their infectivity”, the “infectivity of RSV” value [2] was “reduced their infectivity” and the “change in inflammatory markers” value [3, 4] was “no substantial change”. For the same compound, the “change in methemoglobin level” value [3, 4] was “no substantial change”, the “change in serum nitrite level” value [3, 4] was “no substantial change” and the “SpMet level (percent saturation at the periphery of methemoglobin)” value ([3]; human subjects undergoing the method, during and following administration) was at most 1%.
